Inhibition data for one compound are collected here from EP4467141A1, “PYRAZOLO-QUINOLINES AS SELECTIVE INHIBITORS OF GENOTOXIC STRESS-INDUCED IKK/NF- KB PATHWAYS FOR CANCER THERAPY” (Max-Delbrück-Centrum für Molekulare Medizin in der …, priority 2023, dated 2024).

Holding throughout (experiment): Kinase panel study
Common to all, as to format: biochemical

One experiment concerns the target T1, PIK3CG (p11 0 gamma) (Homo sapiens, UniProt P48736).
T1 construct: purchased Thermo Fisher Scientific
The note with it: PIK3CG; compound at 10µM; read-out: % of Inhibition. The gist of the method: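 Compounds were tested in vitro against the kinase panel by a service lab. Assays followed standard ZLyte or Adapta protocols. Activity was recorded as % inhibition at 10 µM or 1 µM, with IC50 values where determined.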

The target of a further experiment is T2, PI4K2B (PI4K2 beta) (Homo sapiens, UniProt Q8TCG2).
T2 construct: purchased Thermo Fisher Scientific
As to conditions: PI4K2B (PI4K2 beta); compound at 10µM; read-out: % of Inhibition. The essentials:
(§1)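 A commercial kinase profiling service ran the assays according to its ZLyte or Adapta standard protocols. Compound was present at 10 µM or 1 µM, and kinase activity loss was expressed as percent inhibition.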

The next experiment addresses T3, MINK1 (Homo sapiens, UniProt Q8N4C8).
T3 construct: purchased Thermo Fisher Scientific
As to conditions: MINK1; compound at 10µM; read-out: % of Inhibition. The gist of the method:
as §1

Another experiment deals with T4, BTK (Homo sapiens, UniProt Q06187).
T4 construct: purchased Thermo Fisher Scientific
The note with it: BTK; compound at 10µM; read-out: % of Inhibition. The essentials:
as §1

For experiment [1], the target named is T5, PIK3CA/PIK3R1 (p11 0 alpha/p85 alpha) (Homo sapiens, UniProt P42336).
T5 construct: purchased Thermo Fisher Scientific
As to conditions: PIK3CA/PIK3R1; compound at 10µM; read-out: % of Inhibition. The gist of the method: as §1

The target of the next experiment is T6, PIK3C2A (PI3K-C2 alpha) (Homo sapiens, UniProt O00443).
T6 construct: purchased Thermo Fisher Scientific
As to conditions: PIK3C2A (PI3K-C2 alpha); compound at 10µM; read-out: % of Inhibition. The gist of the method: as §1

A further experiment deals with T7, AKT1 (PKB alpha) (Homo sapiens, UniProt P31749).
T7 construct: purchased Thermo Fisher Scientific
The note with it: AKT1 (PKB alpha); compound at 10µM; read-out: % of Inhibition. The gist of the method: as §1

The target in the next experiment is T8, FLT3 (Homo sapiens, UniProt P36888).
T8 construct: purchased Thermo Fisher Scientific
T8 sequence (P36888 27-993): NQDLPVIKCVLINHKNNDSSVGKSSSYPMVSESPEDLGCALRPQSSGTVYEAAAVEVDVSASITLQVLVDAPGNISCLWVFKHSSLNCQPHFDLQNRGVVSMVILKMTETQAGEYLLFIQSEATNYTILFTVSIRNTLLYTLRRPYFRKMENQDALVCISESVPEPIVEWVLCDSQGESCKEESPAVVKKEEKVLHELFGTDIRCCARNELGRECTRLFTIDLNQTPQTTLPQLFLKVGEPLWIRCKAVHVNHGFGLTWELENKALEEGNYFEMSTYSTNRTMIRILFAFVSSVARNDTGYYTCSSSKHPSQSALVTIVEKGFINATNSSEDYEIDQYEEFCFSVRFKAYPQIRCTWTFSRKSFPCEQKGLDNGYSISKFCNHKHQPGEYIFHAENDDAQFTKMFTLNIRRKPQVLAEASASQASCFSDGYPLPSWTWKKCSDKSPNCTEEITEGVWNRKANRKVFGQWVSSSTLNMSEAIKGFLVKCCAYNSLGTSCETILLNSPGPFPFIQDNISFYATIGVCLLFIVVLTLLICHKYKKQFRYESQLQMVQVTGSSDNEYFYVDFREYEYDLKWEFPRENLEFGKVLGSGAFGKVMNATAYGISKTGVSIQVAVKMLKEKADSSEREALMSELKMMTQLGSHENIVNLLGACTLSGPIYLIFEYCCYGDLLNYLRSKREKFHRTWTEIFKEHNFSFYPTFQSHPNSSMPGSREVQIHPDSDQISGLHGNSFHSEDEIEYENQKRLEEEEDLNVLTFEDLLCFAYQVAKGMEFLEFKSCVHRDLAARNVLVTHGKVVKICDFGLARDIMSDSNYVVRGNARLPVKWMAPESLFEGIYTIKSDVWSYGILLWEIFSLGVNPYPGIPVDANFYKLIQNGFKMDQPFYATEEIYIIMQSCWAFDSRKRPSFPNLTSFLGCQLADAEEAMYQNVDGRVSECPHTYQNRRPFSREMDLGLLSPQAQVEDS
The note with it: FLT3; compound at 10µM; read-out: % of Inhibition. The gist of the method: as §1

Experiment [2] addresses T9, PIK3CD/PIK3R1 (p11 0 delta/p85 alpha) (Homo sapiens, UniProt O00329).
T9 construct: purchased Thermo Fisher Scientific
As to conditions: PIK3CD/PIK3R1; compound at 10µM; read-out: % of Inhibition. The gist of the method:
as §1

The next experiment deals with T10, CSF1R (FMS) (Homo sapiens, UniProt P07333).
T10 construct: purchased Thermo Fisher Scientific
The note with it: CSF1R (FMS); compound at 10µM; read-out: % of Inhibition. The gist of the method:
as §1

The next experiment deals with T11, PIP5K1C (Homo sapiens, UniProt O60331).
T11 construct: purchased Thermo Fisher Scientific
As to conditions: PIP5K1C; compound at 10µM; read-out: % of Inhibition. The essentials: as §1

The target of another experiment is T12, PI4K2A (PI4K2 alpha) (Homo sapiens, UniProt Q9BTU6).
T12 construct: purchased Thermo Fisher Scientific
The note with it: PI4K2A (PI4K2 alpha); compound at 10µM; read-out: % of Inhibition. The gist of the method: as §1

In experiment [3] the target is T13, PIK3CB/PIK3R2 (p11 0 beta/p85 beta) (Homo sapiens, UniProt P42338).
T13 construct: purchased Thermo Fisher Scientific
As to conditions: PIK3CB/PIK3R2; compound at 10µM; read-out: % of Inhibition. The essentials:
as §1

Another experiment addresses T14, PIP5K1A (Homo sapiens, UniProt Q99755).
T14 construct: purchased Thermo Fisher Scientific
As to conditions: PIP5K1A; compound at 10µM; read-out: % of Inhibition. The gist of the method:
as §1

T10 sequence (P07333 20-972): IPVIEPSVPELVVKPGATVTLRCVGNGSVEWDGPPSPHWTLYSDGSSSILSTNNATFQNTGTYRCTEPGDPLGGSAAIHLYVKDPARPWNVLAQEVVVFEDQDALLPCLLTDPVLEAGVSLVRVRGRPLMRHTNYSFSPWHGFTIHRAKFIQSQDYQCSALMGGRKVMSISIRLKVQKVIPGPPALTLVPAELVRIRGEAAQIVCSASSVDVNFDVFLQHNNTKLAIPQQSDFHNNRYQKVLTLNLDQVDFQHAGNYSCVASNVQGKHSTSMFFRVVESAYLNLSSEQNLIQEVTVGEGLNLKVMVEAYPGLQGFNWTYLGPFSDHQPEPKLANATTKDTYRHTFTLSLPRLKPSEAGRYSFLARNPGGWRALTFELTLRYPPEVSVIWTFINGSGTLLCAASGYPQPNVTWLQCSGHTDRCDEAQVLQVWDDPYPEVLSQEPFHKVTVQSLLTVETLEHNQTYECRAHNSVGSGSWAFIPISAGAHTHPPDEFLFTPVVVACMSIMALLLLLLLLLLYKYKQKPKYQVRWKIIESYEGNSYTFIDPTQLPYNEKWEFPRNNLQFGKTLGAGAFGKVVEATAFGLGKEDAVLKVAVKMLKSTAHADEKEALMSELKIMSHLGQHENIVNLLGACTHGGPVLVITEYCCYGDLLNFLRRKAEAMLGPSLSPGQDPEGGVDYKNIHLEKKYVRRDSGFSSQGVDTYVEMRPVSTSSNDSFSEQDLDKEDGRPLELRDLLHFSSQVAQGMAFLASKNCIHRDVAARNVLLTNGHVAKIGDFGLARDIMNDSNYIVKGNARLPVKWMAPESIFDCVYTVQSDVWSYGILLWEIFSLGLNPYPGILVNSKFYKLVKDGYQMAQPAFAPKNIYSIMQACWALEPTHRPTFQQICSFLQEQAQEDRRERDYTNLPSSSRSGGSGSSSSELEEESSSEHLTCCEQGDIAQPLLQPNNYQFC
T7 sequence (P31749 whole entry): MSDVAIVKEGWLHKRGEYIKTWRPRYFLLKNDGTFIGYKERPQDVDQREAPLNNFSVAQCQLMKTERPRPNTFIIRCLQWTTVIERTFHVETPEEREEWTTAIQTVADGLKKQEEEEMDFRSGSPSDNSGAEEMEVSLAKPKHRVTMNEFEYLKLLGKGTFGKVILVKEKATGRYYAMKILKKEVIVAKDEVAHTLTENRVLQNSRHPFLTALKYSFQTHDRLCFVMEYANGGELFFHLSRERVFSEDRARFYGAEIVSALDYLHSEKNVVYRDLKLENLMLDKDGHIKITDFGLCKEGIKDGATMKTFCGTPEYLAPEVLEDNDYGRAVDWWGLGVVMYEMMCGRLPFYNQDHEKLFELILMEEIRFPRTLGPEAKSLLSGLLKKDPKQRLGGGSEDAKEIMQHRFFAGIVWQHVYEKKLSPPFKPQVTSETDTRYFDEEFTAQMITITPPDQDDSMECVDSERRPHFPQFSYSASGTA
T13 sequence (P42338 whole entry): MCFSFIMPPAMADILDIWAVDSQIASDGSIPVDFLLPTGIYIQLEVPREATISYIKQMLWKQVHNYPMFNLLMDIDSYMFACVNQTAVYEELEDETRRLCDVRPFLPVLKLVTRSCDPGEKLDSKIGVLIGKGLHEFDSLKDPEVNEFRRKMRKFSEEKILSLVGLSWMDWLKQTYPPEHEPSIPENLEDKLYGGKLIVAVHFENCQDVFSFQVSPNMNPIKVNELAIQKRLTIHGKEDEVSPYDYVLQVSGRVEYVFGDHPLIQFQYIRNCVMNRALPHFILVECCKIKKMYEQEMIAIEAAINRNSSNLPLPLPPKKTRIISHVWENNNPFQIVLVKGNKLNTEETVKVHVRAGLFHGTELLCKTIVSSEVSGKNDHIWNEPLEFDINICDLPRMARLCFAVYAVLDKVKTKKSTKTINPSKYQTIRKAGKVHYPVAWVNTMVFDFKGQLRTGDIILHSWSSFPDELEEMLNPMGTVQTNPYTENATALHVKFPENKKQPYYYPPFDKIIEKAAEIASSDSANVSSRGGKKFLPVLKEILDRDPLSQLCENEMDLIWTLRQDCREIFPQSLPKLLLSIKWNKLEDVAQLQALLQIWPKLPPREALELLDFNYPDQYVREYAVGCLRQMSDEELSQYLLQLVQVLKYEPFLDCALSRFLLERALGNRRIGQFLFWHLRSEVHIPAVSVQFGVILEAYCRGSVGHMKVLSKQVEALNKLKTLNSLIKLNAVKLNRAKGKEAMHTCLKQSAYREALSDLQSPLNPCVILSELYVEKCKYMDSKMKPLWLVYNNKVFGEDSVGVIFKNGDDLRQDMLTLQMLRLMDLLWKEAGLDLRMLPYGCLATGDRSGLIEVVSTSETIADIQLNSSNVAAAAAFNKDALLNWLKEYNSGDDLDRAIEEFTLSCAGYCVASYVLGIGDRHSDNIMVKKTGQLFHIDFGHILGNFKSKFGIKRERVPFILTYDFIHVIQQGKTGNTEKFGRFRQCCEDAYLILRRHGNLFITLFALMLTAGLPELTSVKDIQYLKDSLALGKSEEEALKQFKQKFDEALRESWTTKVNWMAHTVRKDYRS
T13 sequence (O00459 whole entry partner): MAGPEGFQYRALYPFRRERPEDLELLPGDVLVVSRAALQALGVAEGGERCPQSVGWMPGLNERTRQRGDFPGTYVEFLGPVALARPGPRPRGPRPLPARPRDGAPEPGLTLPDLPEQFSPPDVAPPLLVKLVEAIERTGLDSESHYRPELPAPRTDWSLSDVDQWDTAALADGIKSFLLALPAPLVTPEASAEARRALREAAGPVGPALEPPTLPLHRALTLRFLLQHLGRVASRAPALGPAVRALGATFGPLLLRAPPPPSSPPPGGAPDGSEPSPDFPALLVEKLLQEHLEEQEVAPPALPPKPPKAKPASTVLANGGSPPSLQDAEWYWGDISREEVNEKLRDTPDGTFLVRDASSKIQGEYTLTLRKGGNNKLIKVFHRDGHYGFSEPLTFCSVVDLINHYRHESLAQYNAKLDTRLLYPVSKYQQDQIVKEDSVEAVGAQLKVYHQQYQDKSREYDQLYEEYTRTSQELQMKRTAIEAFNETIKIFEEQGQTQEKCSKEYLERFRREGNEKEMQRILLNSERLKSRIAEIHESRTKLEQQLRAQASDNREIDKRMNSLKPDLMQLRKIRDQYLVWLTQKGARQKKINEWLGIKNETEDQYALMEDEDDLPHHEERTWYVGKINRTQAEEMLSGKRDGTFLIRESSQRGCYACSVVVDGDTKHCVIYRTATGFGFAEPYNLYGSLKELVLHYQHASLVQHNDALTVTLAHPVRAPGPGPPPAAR
T9 sequence (O00329 whole entry): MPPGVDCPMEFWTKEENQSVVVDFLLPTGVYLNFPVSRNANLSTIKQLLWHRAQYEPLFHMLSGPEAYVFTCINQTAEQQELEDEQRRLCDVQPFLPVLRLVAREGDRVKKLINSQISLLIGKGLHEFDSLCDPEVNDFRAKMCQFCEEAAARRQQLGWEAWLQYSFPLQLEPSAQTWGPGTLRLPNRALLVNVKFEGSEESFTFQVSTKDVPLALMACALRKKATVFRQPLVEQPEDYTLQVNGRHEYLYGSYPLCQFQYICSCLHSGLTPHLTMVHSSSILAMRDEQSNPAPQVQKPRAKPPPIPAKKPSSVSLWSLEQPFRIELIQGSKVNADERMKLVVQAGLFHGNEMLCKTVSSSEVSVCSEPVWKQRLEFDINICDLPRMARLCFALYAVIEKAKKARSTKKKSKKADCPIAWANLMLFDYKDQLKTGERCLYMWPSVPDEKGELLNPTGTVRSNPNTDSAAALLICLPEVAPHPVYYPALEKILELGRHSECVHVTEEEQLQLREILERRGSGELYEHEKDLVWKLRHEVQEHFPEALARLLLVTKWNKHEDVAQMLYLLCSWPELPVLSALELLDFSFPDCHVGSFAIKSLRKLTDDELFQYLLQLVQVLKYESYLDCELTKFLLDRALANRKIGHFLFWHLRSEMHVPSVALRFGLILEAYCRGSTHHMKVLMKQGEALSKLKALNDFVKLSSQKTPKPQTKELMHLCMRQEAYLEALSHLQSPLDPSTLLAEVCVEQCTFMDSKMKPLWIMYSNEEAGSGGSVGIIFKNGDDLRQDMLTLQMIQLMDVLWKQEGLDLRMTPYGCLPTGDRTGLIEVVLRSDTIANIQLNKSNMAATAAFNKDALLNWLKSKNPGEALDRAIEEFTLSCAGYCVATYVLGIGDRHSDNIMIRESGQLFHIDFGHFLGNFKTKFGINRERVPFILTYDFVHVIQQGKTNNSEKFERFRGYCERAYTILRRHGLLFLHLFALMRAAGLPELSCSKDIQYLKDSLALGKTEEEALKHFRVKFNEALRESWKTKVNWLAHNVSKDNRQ
T9 sequence (P27986 whole entry partner): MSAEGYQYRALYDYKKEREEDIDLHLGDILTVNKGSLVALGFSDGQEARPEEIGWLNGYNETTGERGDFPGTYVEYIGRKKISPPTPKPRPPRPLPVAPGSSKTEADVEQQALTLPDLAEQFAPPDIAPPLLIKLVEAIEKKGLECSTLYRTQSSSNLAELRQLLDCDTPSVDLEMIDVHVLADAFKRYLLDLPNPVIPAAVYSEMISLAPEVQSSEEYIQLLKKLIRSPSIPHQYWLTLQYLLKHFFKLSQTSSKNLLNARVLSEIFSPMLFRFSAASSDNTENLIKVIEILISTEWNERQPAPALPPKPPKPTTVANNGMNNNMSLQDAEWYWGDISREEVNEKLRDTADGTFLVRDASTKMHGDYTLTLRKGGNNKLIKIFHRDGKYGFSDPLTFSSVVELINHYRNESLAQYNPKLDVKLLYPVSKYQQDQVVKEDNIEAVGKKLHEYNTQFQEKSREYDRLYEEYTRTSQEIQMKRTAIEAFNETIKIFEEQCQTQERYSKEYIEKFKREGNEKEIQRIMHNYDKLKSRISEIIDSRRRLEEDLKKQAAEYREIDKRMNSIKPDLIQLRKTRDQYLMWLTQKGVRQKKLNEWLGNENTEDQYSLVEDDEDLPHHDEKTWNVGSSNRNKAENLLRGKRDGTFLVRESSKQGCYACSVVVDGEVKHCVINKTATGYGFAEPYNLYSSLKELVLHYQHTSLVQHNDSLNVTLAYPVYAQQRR

As a reminder, the inhibition is the change of the read-out against control, counted positive when it falls. Regarding `COc1ccc2nc3c(cc2c1)c(N)nn3C(=O)c1cccc(N(C)C)c1` [MW05-E2, 1-[3-(dimethylamino)benzoyl]-6-methoxy-1H-pyrazolo[3,4-b]quinolin-3-amine], the inhibition at 10 µM at PIK3CG (p11 0 gamma) amounted to 2%; on PI4K2B (PI4K2 beta), 8%; on MINK1, 29%; at BTK it was 7%; in experiment [1], 26%; on PIK3C2A (PI3K-C2 alpha), 10%. Moreover, the inhibition at 10 µM on AKT1 (PKB alpha) was 9%; at FLT3, 17%; in experiment [2], 28%; at CSF1R (FMS) it was 20%; on PIP5K1C, -2%; at PI4K2A (PI4K2 alpha) it was -4%. The results for the inhibition at 10 µM (in [3]; on PIP5K1A) were 7% and -9%, respectively.
